Like-named read-outs stand apart in the source and are kept apart here.
Key:
[1] = tested on: naive Sprague Dawley rats; assay: In vivo measurement of lowered meibum melting temperature; set-up: species or system rat; settings: for Change of Tm: meibum melting point versus vehicle, 1% suspension eye drops twice a day for fourteen days, rats; for meibum melting temperature (in words): rat eyes, concentration of 1%; for Mean ± SEM of Compound (meibum melting point): rat meibum, DSC peak temperature, 1% suspension as eye drops twice a day for fourteen days, in °C
Method: In Vivo Measurement of Lowered Meibum Melting Temperature
For compounds 8 and 57, the lowering of rat meibum melting temperature was measured in naive Sprague Dawley rats. The test animals were administered either vehicle, or a suspension of 1% of compound 8 or 1% of compound 57, as eye drops twice a day for fourteen days. The rat meibum was collected after administration of the compounds and analyzed by differential scanning calorimetry to measure the melting point. The lowering of meibum melting point in rats administered compound 8 or compound 57 was compared to the vehicle.
Melting properties of meibum were obtained using differential scanning calorimetry thermograms, recorded on a TA Discovery Q5000 (ThermoAnalytical). Samples were sealed in standard 40 μl aluminum pans and subjected to a heat-cool-heat cycle with melting temperatures being recorded on the second heating ramp. The samples were first heated to 150° C. at 30K/min then cooled −30° C. at 30K/min. Next, the sample was heated to 75° C. with an underlying heating rate of 2K/min, a period of modulation of 60 seconds and a temperature amplitude of modulation of 1° C. Dry N2 gas, at a flow rate of 50 mL/min was used to purge the DSC equipment during the measurement. Onset of melting and peak temperatures were recorded with peak temperature quoted as the melting point.
Results from the assay are shown Table 3 and in FIG. 4. Results were analyzed using an unpaired t test with Welch's correction.

SCD1 = assay: Measurement of SCD1 expression in SZ95-SCD1-HiBit cells (HiBiT assay); format: cell-based; settings: Homo sapiens; for EC50: read-out: HiBit EC50
SZ95 sebocytes = assay: Sentinel Lipid Assay (SLA), desaturation index in SZ95 sebocytes; format: cell-based; settings: Homo sapiens, 72 h; for EC50: desaturation index, lowest dose used 4.6 nM, read-out: SLA EC50
Outline: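 SZ95 human sebocytes on fibronectin-coated plates, dosed 72 h at 37 °C with 1:3 dilutions from 10 μM; lipids extracted with deuterated triglyceride internal standards and quantified by LC-MS/MS (MRM) as 11 sentinel lipids. Desaturation index from elastic-net coefficients, normalized to DMSO; Amax relative to a reference LXR agonist.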

[2] = 48 h, normalized Amax based on the reference compound Amax of 100%, read-out: HiBit Normalized Amax
[3] = SZ95-SCD1-HiBit cells, 48 h, SCD1 protein production, luminescence, initial dilution 1:3 in DMSO
[4] = SZ95-SCD1-HiBit cells, 48 h, compared to reference compound, read-out: HiBit Amax
[5] = normalized Amax based on the reference compound Amax of 100%, read-out: SLA Normalized Amax
[6] = SZ95 cells, compared to reference compound, read-out: SLA Amax

SMILES	EC50 (SCD1; [3])	EC50 (SZ95 sebocytes; SZ95 cells)	EC50 (SCD1; footnote a: initial dilution for the compound 1:100 in assay medium rather than 1:3 in DMSO)	Change of Tm [1]	meibum melting temperature (in words) [1]	Mean ± SEM of Compound (meibum melting point) [1]	Emax (SCD1; [2])	Emax (SCD1; [4])	Emax (SZ95 sebocytes; [5])	Emax (SZ95 sebocytes; [6])
CC(C)CS(=O)(=O)c1ccccc1Oc1ccc(-c2noc(CN3C(=O)N(CCN4CCOCC4)C4(CCN(C5CCC5)CC4)C3=O)n2)cc1C(F)(F)F [Compound 8, 8-cyclobutyl-3-((3-(4-(2-(isobutylsulfonyl)phenoxy)-3-(trifluoromethyl)phenyl)-1,2,4-oxadiazol-5-yl)methyl)-1-(2-morpholinoethyl)-1,3,8-triazaspiro[4.5]decane-2,4-dione]	0.111 nM	≤ 4.6 nM	–	−1.977 ± 0.3731	decrease	28.29 ± 0.2920	120%	114%	230%	221%
CC(C)CS(=O)(=O)c1ccccc1Oc1ccc(-c2noc(CN3C(=O)N(CCN4CCOCC4)C(C)(C)C3=O)n2)cc1C(F)(F)F [Compound 57, 3-((3-(4-(2-(isobutylsulfonyl)phenoxy)-3-(trifluoromethyl)phenyl)-1,2,4-oxadiazol-5-yl)methyl)-5,5-dimethyl-1-(2-morpholinoethyl)imidazolidine-2,4-dione]	0.217 nM	≤ 4.6 nM	–	−2.181 ± 0.3731	decrease	28.08 ± 0.2945	88.4%	84.1%	176%	169%
CC1(C)C(=O)N(Cc2nc(-c3ccc(OCCC(F)(F)F)c(C(F)(F)F)c3)no2)C(=O)N1CCN1CCOCC1 [Compound 66, 5,5-dimethyl-1-(2-morpholinoethyl)-3-((3-(3-(trifluoromethyl)-4-(3,3,3-trifluoropropoxy)phenyl)-1,2,4-oxadiazol-5-yl)methyl)imidazolidine-2,4-dione]	187 nM	21.1 nM	–	–	–	–	82.3%	78.2%	99%	95.1%
CC(C)CS(=O)(=O)c1ccccc1Oc1ccc(-c2noc(CN3C(=O)N(CCN4CCOCC4)C4(CCN(C(=O)CCCCC(=O)O)CC4)C3=O)n2)cc1C(F)(F)F [Compound 67, 6-(3-((3-(4-(2-(isobutylsulfonyl)phenoxy)-3-(trifluoromethyl)phenyl)-1,2,4-oxadiazol-5-yl)methyl)-1-(2-morpholinoethyl)-2,4-dioxo-1,3,8-triazaspiro[4.5]decan-8-yl)-6-oxohexanoic acid]	3.94 nM	≤ 4.6 nM	–	–	–	–	88.9%	84.5%	103%	99.1%

The next lines start with results.

EC50 (SCD1; [3])	EC50 (SZ95 sebocytes; SZ95 cells)	EC50 (SCD1; footnote a: initial dilution for the compound 1:100 in assay medium rather than 1:3 in DMSO)	SMILES	Change of Tm [1]	meibum melting temperature (in words) [1]	Mean ± SEM of Compound (meibum melting point) [1]	Emax (SCD1; [2])	Emax (SCD1; [4])	Emax (SZ95 sebocytes; [5])	Emax (SZ95 sebocytes; [6])
–	> 10000 nM	139 nM	CC1(C)NC(=O)N(Cc2nc(-c3ccc(Oc4ccccc4C(F)(F)F)c(C(F)(F)F)c3)no2)C1=O [Compound 71, 5,5-dimethyl-3-((3-(3-(trifluoromethyl)-4-(2-(trifluoromethyl)phenoxy)phenyl)-1,2,4-oxadiazol-5-yl)methyl)imidazolidine-2,4-dione]	–	–	–	68.7%	65.3%	51.9%	49.8%
65.4 nM	87.3 nM	–	O=C(O)Cc1cccc(OCCCN(Cc2cccc(C(F)(F)F)c2Cl)CC(c2ccccc2)c2ccccc2)c1 [Reference Compound, 2-(3-(3-((2-chloro-3-(trifluoromethyl)benzyl)(2,2-diphenylethyl)amino)propoxy)phenyl)acetic acid, reference compound]	–	–	–	100%	95.1%	100%	96%

Source: patent publication US11427586B2, “1,2,4-oxadiazole derivatives as liver X receptor agonists” (NOVARTIS AG, priority 2019, dated 2022)
